Legend:
[1] = molecular target: T1, BRD4-1 (Homo sapiens, UniProt O60885); assay: BRD4-1 Ligand KI assay (TR-FRET, Cy5 labeled probe displacement); type: binding
T1 construct: made in house; host or cells: Escherichia coli
Method: (§1) Binding of the two tandem bromodomains, BRD4-I and BRD4-2, to a Cy5 labeled probe/ligand (Compound 1020-501) were measured using a homogeneous time resolved fluorescence resonance energy transfer (TR-FRET) assay.
(§2) The labeled ligand specifically binds BRD4-1 and BRD4-2 and can be displaced by a small molecule inhibitor that shares a similar or overlapping binding site. BRD4-I and BRD4-2 were expressed and purified from Escherichia coli as N-terminal His6-tagged proteins. A Eu-cryptate labeled anti-His antibody (Perkin Elmer) was used to specifically bind BRD4. […] Assays were performed in 50 mM Hepes (pH 7.5), 150 mM NaCl, 0.1 mg/ml BSA, 0.01% (v/v) Brij, 0.5% (v/v) DMSO and 1.0 nM labeled ligand at the following concentrations for each BRD4 isoform: 2 nM BRD4-1 and 0.5 nM BRD4-2. After an assay reaction time of 60 minutes at 25° C., binding was measured with 2 nM Eu-cryptate labeled anti-His antibody. TR-FRET signal was detected on an Envision plate reader (Ex: 320 nm; Em: 615/665 nm; 100 μs delay and 200 μs read window). […] All IC50 values represent geometric mean values of a minimum of four determinations. The IC50 values were converted to Ki values (dissociation constant for BRD4-inhibitor complex) using the Cheng and Prusoff equation for a competitive inhibitor mode of action. These assays generally produced results within 3-fold of the reported mean.

[2] = molecular target: T2, BRD4-2 (Homo sapiens, UniProt O60885); assay: BRD4-2 Ligand KI assay (TR-FRET, Cy5 labeled probe displacement); type: binding
T2 construct: made in house; host or cells: Escherichia coli
Method: as §1, §2

[3] = system: c-Myc in MM.1S cells; assay: c-Myc down regulation assay (MSD) in MM.1S cells; type: cell-based; settings: Homo sapiens, MM1.S, 24 hrs incubation
Method: An enzyme linked immunosorbent assay using the Meso Scale Diagnostic (MSD) technology was used to detect levels of c-Myc produced in MM.1S cells (ATCC). MM.1S cells were cultured in RPMI-1640 media (Corning), supplemented with 10% FBS (Hyclone), 1% penicillin-streptomycin (Cellgro), 2-mercaptoethanol (Gibco) and seeded onto 384-tissue culture treated filter binding plates (Millipore) at a density of 40K cells/well containing titrations of small molecule inhibitors or DMSO (0.4%) in a volume of […] of media. After an incubation time of 24 hrs, cells were lysed (1× lysis buffer (Thermo) supplemented with protease and phosophatase inhibitor cocktail (Thermo)) and the plates centrifuged (1000 rpm, 1 min) to capture c-Myc on MSD plates coated with a monoclonal c-Myc antibody (Origene). Assay wells were washed (3× Invitrogen wash buffer) and probed with a polyclonal c-Myc antibody (Abeam) and MSD detection antibody solution in order to detect levels of c-Myc on the MSD platform. c-Myc capture was reported in pg/ml based on a standard curve using recombinant c-Myc protein (Prosci). EC50 values were calculated from the fit of the dose-response curves to a four-parameter equation. All EC50 values represent geometric mean values of a minimum of four determinations. These assays generally produced results within 3-fold of the reported mean.

[4] = system: MT-4 cells; assay: MT-4 proliferation assay; type: cell-based; settings: Homo sapiens, MT4, 120 h; Table 2; 5 days, Cell Titer Glo luminescence
Method: Compounds were tested in a standardized high-throughput 384-well assay format. Each compound was serially diluted 3-fold in 100% DMSO in polypropylene 384-well plates using a Biomek FX Workstation, and 0.4 μL compound added to an assay plate containing 40 μL RPMI media. Compounds were arranged in a horizontal pattern, with 10 concentrations per compound, and 8 compounds added per plate. Due to low DMSO tolerability, the final DMSO concentration never exceeded 0.5% (v/v). Each assay plate contained 10 μM Puromycin and 0.5% DMSO in RPMI-1640 as positive and negative controls respectively. MT-4 cells (HTLV-1 transformed, human T lymphoblastoid cells, NIH Aids Reagent program) were added in volumes of 35 μL per well and 2,000 cells per well using a Biotek uFlow Workstation (Biotek, Winooski, Vt.), and the plates subsequently incubated for 5 days at 37° C. in an incubator set at 5% CO2 and 90% humidity.
After 5 days, 22 μL Cell Titer Glo (Promega) was added to the assay plates with a Biotek uFlow Workstation. Plates were subsequently placed on a Perkin Elmer Envision Plate Reader for 5 minutes before the luminescence signal was read.

[5] = system: MM.1S cells; assay: MM.1S viability assay (CellTiter Glo); type: cell-based; settings: Homo sapiens, MM1.S, 72 hr incubation, read-out: MM.1S Cell viability (EC50)
Method: For cell viability in the MM.1S cell line, cells were seeded onto 384-tissue culture treated plates (Greiner) at a density of 60K cells/well containing titrations of small molecule inhibitors or DMSO (0.2%). After 72 hr incubation cells were analyzed for cell viability by addition of CellTiter Glo (Promega) to the assay plates. After 15 min incubation at room temperature the signal from the viable cells was analyzed on an Envision plate reader (Perkin Elmer). EC50 values were calculated from the fit of the dose-response curves to a four-parameter equation. All EC50 values represent geometric mean values of a minimum of four determinations. These assays generally produced results within 3-fold of the reported mean.

[6] = molecular target: T1, BRD4-1; assay: HTRF (TR-FRET) assay, BRD4-1 binding to acetylated histone H4 peptide; settings: 60 nM BRD4-1, 200 nM H4 peptide, 60 minutes at 25° C.; geometric mean of a minimum of four determinations; read-out: HTRF BRD4-1 (IC50)
Method: (§3) Binding of the two tandem bromodomains, BRD4-1 and BRD4-2, to an acetylated histone H4 peptide was measured using a homogeneous time resolved fluorescence resonance energy transfer (TR-FRET) assay. […] BRD4-1 and BRD4-2 were expressed and purified from Escherichia coli as N-terminal His6-tagged proteins. An XL665 labeled anti-His antibody (Cisbio) was used to specifically bind BRD4 and a cryptate labeled streptavidin protein was used because it specifically recognized the biotinylated H4 peptide. […] After an assay reaction time of 60 minutes at 25° C., binding was measured with 2 nM crytptate labeled streptavidin and 10 nM anti-His-XL665 antibody. TR-FRET signal was detected on an Envision plate reader (Ex: 320 nm; Em: 615/665 nm; 100 us delay and 200 μs read window). […] All IC50 values represent geometric mean values of a minimum of four determinations.

[7] = molecular target: T2, BRD4-2; assay: HTRF (TR-FRET) assay, BRD4-2 binding to acetylated histone H4 peptide; settings: 120 nM BRD4-2, 200 nM H4 peptide, 60 minutes at 25° C.; geometric mean of a minimum of four determinations; read-out: HTRF BRD4-2 (IC50)
Method: as §3

[8] = molecular target: T1, BRD4-1; assay: Alpha assay, BRD4-1 binding to acetylated histone H4 peptide; settings: 15 nM BRD4-1, 200 nM H4 peptide, 60 minutes at 25° C.; geometric mean of a minimum of four determinations; read-out: Alpha Assay (IC50)
Method: Binding of the bromodomain BRD4-I to an acetylated histone H4 peptide was measured using a bead-based Amplified Luminescent Proximity Homogeneous Assay (ALPHA). […] BRD4-I was expressed and purified from Escherichia coli as an N-terminal His6-tagged protein. Nickel-Chelate ALPHA acceptor beads (Perkin Elmer) were used to specifically bind BRD4-1 and ALPHA streptavidin donor beads (Perkin Elmer) were used because they specifically recognized the biotinylated H4 peptide. […] Assays were performed in 50 mM Hepes (pH 7.5), 150 mM NaCl, 0.1 mg/ml BSA, 0.01% (v/v) Brij, 0.5% (v/v) DMSO, 200 nM H4 peptide and 15 nM of BRD4-1 protein. After an assay reaction time of 60 minutes at 25° C., binding was measured with 20 μg/ml streptavidin donor beads and 20 μg/ml nickle-chelate acceptor beads. ALPHA signal was detected on an Envision plate reader (Ex: 320 nm; Em: 570 nm; Ex time: 180 ms). […] All IC50 values represent geometric mean values of a minimum of four determinations.

[9] = 2 nM BRD4-1, 1.0 nM labeled ligand, 60 minutes at 25° C., read-out: BRD4-1 Ligand KI (IC50)
[10] = 0.5 nM BRD4-2, 1.0 nM labeled ligand, 60 minutes at 25° C., read-out: BRD4-2 Ligand KI (IC50)

For `Cc1noc(C)c1-c1cc(C(O)(c2nccs2)c2nccs2)c2nc(C3CC3)[nH]c2c1` [Compound 1020-103, (2-cyclopropyl-6-(3,5-dimethylisoxazol-4-yl)-1H-benzo[d]imidazol-4-yl)di(thiazol-2-yl)methanol], the IC50 [1, 9] was 4 nM and the IC50 [2, 10] was 12.4 nM.
`Cc1noc(C)c1-c1cc(C(O)(c2ccccn2)c2ccccn2)c2nc(C3CC3)[nH]c2c1` [Compound 1020-104, (2-cyclopropyl-6-(3,5-dimethylisoxazol-4-yl)-1H-benzo[d]imidazol-4-yl)di(pyridin-2-yl)methanol] showed an IC50 [1, 9] of 7.2 nM and an IC50 [2, 10] of 11.7 nM.
Molecule `Cc1cccc(C(O)(c2cc(-c3c(C)noc3C)cc3[nH]c(C4CC4)nc23)C2CCCO2)n1` (racemic) [Compound 1020-114, (2-cyclopropyl-6-(3,5-dimethylisoxazol-4-yl)-1H-benzo[d]imidazol-4-yl)(6-methylpyridin-2-yl)(tetrahydrofuran-2-yl)methanol] has an IC50 [1, 9] of 3.8 nM and an IC50 [2, 10] of 2.7 nM.
`Cc1noc(C)c1-c1cc(C(O)(c2ncccn2)c2ccc(F)cc2F)c2nc(C3CC3)[nH]c2c1` (centres unmarked) [Compound 1020-257, (2-Cyclopropyl-6-(3,5-dimethylisoxazol-4-yl)-1H-benzo[d]imidazol-4-yl)(2,4-difluorophenyl)(pyrimidin-2-yl)methanol] gave an IC50 [1, 9] of 4.7 nM and an IC50 [2, 10] of 5.6 nM.
`Cc1noc(C)c1-c1cc(C(O)(c2cccnn2)C2CCCO2)c2nc(C3CC3)[nH]c2c1` (single isomer, unassigned) [Compound 1020-289, (2-cyclopropyl-6-(3,5-dimethylisoxazol-4-yl)-1H-benzo[d]imidazol-4-yl)(pyridazin-3-yl)(tetrahydrofuran-2-yl)methanol] gave an EC50 [3] of 5.7 nM, an EC50 [4] of 4.2 nM and an EC50 [5] of 17.8 nM.
Work on `Cc1noc(C)c1-c1cc(C(O)(c2ccccc2)c2cccnc2)c2nc(C3CC3)[nH]c2c1` (centres unmarked) [Compound 1020-112, (2-cyclopropyl-6-(3,5-dimethylisoxazol-4-yl)-1H-benzo[d]imidazol-4-yl)(phenyl)(pyridin-3-yl)methanol] yielded an IC50 [1, 9] of 10.4 nM and an IC50 [2, 10] of 13.5 nM.
Work on `Cc1noc(C)c1-c1cc(C(O)(c2ccccc2)c2ccccn2)c2nc(C3CC3)[nH]c2c1` (centres unmarked) [Compound 1020-113, (2-cyclopropyl-6-(3,5-dimethylisoxazol-4-yl)-1H-benzo[d]imidazol-4-yl)(phenyl)(pyridin-2-yl)methanol] yielded an IC50 [1, 9] of 10.7 nM and an IC50 [2, 10] of 12.8 nM.
`Cc1noc(C)c1-c1cc(C(O)(c2ccccn2)c2ccccn2)c2nc(C3CC3)[nH]c2c1F` [Compound 1020-224, (2-cyclopropyl-6-(3,5-dimethylisoxazol-4-yl)-7-fluoro-1H-benzo[d]imidazol-4-yl)di(pyridin-2-yl)methanol] gave an IC50 [1] of 10.8 nM and an IC50 [2] of 20.2 nM.
In the case of `CC/C=C(\CC)c1cc(-c2c(C)noc2C)cc2nc(C3CC3)[nH]c12` [Compound 1020-28, (E)-4-(2-Cyclopropyl-4-(hex-3-en-3-yl)-1H-benzo[d]imidazol-6-yl)-3,5-dimethylisoxazole], the IC50 [6] is reported as 71.8 nM, the IC50 [7] is reported as 65.5 nM and the IC50 [8] is reported as 18.1 nM.
With `Cc1n[nH]c(C)c1-c1cc(-c2c(C)noc2C)cc2nc(C3CC3(F)F)[nH]c12` (centres unmarked) [Compound 1020-78, 4-(2-(2,2-Difluorocyclopropyl)-7-(3,5-dimethyl-1H-pyrazol-4-yl)-1H-benzo[d]imidazol-5-yl)-3,5-dimethylisoxazole] the IC50 [6] was 161 nM, the IC50 [7] was 94.1 nM and the IC50 [8] was 25.1 nM.
Work on `Cc1nc2cc(-c3c(C)noc3C)cc(-c3c(C)n[nH]c3C)c2[nH]1` [Compound 1020-77, 4-(7-(3,5-Dimethyl-1H-pyrazol-4-yl)-2-methyl-1H-benzo[d]imidazol-5-yl)-3,5-dimethylisoxazole] yielded an IC50 [6] of 244 nM, an IC50 [7] of 64.8 nM and an IC50 [8] of 42.7 nM.

Source: patent US20160075695A1, “BENZIMIDAZOLE DERIVATIVES AS BROMODOMAIN INHIBITORS” (Gilead Sciences, Inc., priority 2013, published 2016)
